The target of test [1] is T1, CDK9/CycT1 (Homo sapiens, UniProt P50750).
T1 construct: Recombinant full-length His-tagged human CDK9 and CycT1; purchased Life Technologies PV4131; host or cells: insect cells
Description: CDK9/CycT1 high ATP kinase assay (TR-FRET, 2 mM ATP). It counts as biochemical. A digest of the protocol: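 Full-length His-tagged human CDK9/CycT1 (insect cell, ~0.5 μg/mL) preincubated 15 min at 22 °C with compound in Tris pH 8.0, MgCl2, DTT buffer before reaction with biotinylated peptide substrate at high ATP (2 mM).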

The target in test [2] is T2, CYCLIN K (nuclear staining in CAL-120 cells) (Homo sapiens, UniProt O75909).
T2 construct: endogenous in cells; host or cells: CAL-120 human breast cancer cells (DSMZ ACC 459)
The test is described as follows: CYCLIN K nuclear protein level: immunofluorescence high content analysis (CAL-120). It counts as cell-based. To be noted: 24 h, 50% reduction of nuclear CCNK staining intensity, median, read-out: CYCLIN K degradation IF, DC50-[mol/l] (median). A digest of the protocol:
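CAL-120 breast cancer cells treated in dose-response for 24 h at 37 °C, PFA-fixed and immunostained for cyclin K with Hoechst counterstain. Confocal imaging quantified nuclear intensity; DC50 is the concentration giving 50% reduction of nuclear CCNK staining, normalized to DMSO and control.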

[3] abbreviates: 2 mM ATP (high ATP), median, read-out: CDK9/CyclinT1, 2 mM ATP (high ATP), IC50 (median).

Among the data in patent US20230117034A1, “PYRAZOLOTRIAZINES” (Bayer Aktiengesellschaft, priority 2019, published 2023) are IC50 and DC50 values, retold here.

Molecules are shown by their SMILES. Where two headings read alike, the source gives them in different places.

T2 sequence (O75909 whole entry): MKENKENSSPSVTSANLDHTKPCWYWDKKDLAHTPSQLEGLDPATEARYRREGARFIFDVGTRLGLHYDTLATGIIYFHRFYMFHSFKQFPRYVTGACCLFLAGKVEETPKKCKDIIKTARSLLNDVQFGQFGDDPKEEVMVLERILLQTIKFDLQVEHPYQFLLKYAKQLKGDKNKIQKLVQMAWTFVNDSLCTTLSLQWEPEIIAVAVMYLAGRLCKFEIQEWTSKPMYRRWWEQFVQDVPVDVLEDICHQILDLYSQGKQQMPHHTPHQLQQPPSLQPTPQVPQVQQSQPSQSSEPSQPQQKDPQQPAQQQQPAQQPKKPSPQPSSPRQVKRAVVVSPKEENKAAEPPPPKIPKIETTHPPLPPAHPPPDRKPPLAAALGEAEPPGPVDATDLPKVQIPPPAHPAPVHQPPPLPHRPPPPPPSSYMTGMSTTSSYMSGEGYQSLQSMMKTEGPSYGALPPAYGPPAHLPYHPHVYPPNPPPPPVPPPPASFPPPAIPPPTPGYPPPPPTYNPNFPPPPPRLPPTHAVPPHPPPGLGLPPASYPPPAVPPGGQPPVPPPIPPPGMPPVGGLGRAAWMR
T2 sequence (Q9NYV4 whole entry partner): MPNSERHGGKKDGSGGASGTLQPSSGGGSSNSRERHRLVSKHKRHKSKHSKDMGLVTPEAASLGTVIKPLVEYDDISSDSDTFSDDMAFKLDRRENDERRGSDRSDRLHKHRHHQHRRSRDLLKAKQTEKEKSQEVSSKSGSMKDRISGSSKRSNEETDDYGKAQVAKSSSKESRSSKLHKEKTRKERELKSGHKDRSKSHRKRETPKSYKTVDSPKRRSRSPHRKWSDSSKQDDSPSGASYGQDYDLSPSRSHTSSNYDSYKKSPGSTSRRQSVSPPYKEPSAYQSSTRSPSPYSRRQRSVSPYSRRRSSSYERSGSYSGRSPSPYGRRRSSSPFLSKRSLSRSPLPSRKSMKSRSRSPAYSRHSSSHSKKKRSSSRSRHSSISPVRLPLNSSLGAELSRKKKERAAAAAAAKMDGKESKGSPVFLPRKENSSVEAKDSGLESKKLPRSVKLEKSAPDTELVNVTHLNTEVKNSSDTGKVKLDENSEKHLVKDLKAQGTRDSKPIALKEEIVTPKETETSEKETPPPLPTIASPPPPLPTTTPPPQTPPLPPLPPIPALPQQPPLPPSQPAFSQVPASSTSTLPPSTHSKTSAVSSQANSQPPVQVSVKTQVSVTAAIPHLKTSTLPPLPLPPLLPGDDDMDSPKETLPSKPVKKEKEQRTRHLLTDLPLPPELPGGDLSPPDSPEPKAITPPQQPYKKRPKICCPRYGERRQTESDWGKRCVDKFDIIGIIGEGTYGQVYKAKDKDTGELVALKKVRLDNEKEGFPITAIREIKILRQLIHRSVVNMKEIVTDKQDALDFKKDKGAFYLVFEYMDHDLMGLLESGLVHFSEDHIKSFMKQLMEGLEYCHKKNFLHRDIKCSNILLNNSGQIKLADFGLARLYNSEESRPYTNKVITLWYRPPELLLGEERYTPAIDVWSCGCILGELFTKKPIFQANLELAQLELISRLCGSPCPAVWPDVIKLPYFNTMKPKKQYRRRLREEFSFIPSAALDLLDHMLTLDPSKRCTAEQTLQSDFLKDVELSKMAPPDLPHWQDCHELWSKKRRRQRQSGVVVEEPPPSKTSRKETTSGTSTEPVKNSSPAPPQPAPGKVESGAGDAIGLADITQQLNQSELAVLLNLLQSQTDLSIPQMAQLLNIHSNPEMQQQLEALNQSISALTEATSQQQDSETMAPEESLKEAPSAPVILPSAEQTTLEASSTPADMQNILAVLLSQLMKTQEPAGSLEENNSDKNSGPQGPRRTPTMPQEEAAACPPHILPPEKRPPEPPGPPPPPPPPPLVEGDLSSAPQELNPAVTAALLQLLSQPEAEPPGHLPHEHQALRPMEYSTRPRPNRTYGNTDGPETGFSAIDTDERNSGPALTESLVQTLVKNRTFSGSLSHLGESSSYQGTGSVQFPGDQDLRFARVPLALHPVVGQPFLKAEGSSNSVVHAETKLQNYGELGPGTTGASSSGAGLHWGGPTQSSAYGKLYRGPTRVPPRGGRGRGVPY
T1 sequence (P50750 whole entry): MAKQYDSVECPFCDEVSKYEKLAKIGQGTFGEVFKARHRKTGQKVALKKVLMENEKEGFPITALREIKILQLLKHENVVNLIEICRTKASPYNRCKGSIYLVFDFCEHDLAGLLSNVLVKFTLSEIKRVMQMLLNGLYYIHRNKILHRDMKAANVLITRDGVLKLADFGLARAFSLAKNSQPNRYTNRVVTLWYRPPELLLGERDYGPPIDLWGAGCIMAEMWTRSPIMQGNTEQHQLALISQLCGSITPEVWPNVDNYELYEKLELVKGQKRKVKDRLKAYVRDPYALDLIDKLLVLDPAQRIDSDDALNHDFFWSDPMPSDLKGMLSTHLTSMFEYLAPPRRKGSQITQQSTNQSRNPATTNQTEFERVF
T1 sequence (O60563 whole entry partner): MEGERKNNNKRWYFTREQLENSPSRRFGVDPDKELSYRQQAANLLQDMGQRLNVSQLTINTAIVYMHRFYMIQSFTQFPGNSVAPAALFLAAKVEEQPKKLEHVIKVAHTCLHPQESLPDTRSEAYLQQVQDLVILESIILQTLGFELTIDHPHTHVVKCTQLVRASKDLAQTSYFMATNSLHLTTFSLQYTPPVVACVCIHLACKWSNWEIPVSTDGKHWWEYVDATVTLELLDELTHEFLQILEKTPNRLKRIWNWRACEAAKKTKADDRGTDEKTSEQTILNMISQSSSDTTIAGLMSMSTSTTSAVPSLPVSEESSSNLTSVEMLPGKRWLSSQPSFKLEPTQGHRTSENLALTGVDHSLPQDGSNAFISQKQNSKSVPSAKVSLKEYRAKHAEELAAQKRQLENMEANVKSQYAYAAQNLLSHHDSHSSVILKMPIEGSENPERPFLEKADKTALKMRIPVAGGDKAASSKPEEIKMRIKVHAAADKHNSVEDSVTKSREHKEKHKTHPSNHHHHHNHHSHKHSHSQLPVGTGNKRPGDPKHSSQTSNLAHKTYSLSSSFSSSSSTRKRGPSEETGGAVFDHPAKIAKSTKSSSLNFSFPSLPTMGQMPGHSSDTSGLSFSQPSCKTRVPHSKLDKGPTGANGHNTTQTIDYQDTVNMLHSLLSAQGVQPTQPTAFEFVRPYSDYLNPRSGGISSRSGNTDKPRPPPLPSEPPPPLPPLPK

For `FC(F)(F)c1ccc2[nH]c(CNc3nc(N4CC5CCC(C4)N5)nc4c(C5CC5)cnn34)nc2c1` [Example 327, 8-cyclopropyl-2-(3,8-diazabicyclo[3.2.1]octan-3-yl)-N-{[5-(trifluoromethyl)-1H-benzimidazol-2-yl]methyl}pyrazolo[1,5-a][1,3,5]triazin-4-amine], the IC50 in test [1] (setting [3]) is > 20000 nM. Also, in test [2], the DC50 came to 0.493 nM. Taken in the same sequence, the figures for `CN1C2CCC1CN(c1nc(NCc3nc4c(F)c(F)ccc4[nH]3)n3ncc(C(F)(F)F)c3n1)C2` [Example 356, N-[(4,5-difluoro-1H-benzimidazol-2-yl)methyl]-2-(8-methyl-3,8-diazabicyclo[3.2.1]octan-3-yl)-8-(trifluoromethyl)pyrazolo[1,5-a][1,3,5]triazin-4-amine] were > 20000 nM and 2.01 nM. For `Fc1ccc2[nH]c(CNc3nc(N4CCOCC4)nc4c(Cl)cnn34)nc2c1F` [Example 357], in that order: 10000 nM and 0.552 nM. Taken in the same sequence, the figures for `Fc1c(Cl)ccc2[nH]c(CNc3nc(N4CCOCC4)nc4c(Br)cnn34)nc12` [Example 372, 8-bromo-N-[(5-chloro-4-fluoro-1H-benzimidazol-2-yl)methyl]-2-(morpholin-4-yl)pyrazolo[1,5-a][1,3,5]triazin-4-amine] were 3930 nM and 0.227 nM. For the compound `Fc1c(Cl)ccc2[nH]c(CNc3nc(N4CCOCC4)nc4c(C5CC5)cnn34)nc12` [Example 370, N-[(5-chloro-4-fluoro-1H-benzimidazol-2-yl)methyl]-8-cyclopropyl-2-(morpholin-4-yl)pyrazolo[1,5-a][1,3,5]triazin-4-amine], the IC50 in test [1] (setting [3]) is > 20000 nM. The DC50 in test [2] was 0.258 nM. On to `CN1CCN(c2nc(NCc3nc4cc(Cl)c(Cl)cc4[nH]3)n3ncc(Br)c3n2)CC1` [Example 330, 8-bromo-N-[(5,6-dichloro-1H-benzimidazol-2-yl)methyl]-2-(4-methylpiperazin-1-yl)pyrazolo[1,5-a][1,3,5]triazin-4-amine], for which the IC50 in test [1] (setting [3]) is > 20000 nM. Moreover, the DC50 in test [2] came to 0.16 nM. Taken in the same sequence, the figures for `CN1CCN(c2nc(NCc3nc4cc(F)c(Cl)cc4[nH]3)n3ncc(Br)c3n2)CC1` [Example 337, 8-bromo-N-[(6-chloro-5-fluoro-1H-benzimidazol-2-yl)methyl]-2-(4-methylpiperazin-1-yl)pyrazolo[1,5-a][1,3,5]triazin-4-amine] were > 20000 nM and 0.369 nM. `Fc1cc2nc(CNc3nc(N4CC5CCC(C4)N5)nc4c(Br)cnn34)[nH]c2cc1Cl` [Example 348, 8-bromo-N-[(6-chloro-5-fluoro-1H-benzimidazol-2-yl)methyl]-2-(3,8-diazabicyclo[3.2.1]octan-3-yl)pyrazolo[1,5-a][1,3,5]triazin-4-amine]: in test [1], the IC50 was 14000 nM. For the same compound, the DC50 in test [2] turned out to be 1.17 nM. Take `CN(CC(C)(C)O)c1nc(NCc2nc3cc(C(F)(F)F)ccc3[nH]2)n2ncc(Br)c2n1` [Example 345, 1-{[8-bromo-4-({[5-(trifluoromethyl)-1H-benzimidazol-2-yl]methyl}amino)pyrazolo[1,5-a][1,3,5]triazin-2-yl](methyl)amino}-2-methylpropan-2-ol]: in test [1] (setting [3]), the IC50 stood at 6240 nM. In addition, the DC50 in test [2] came out at 0.698 nM. `CN1CCN(c2nc(NCc3nc4c(F)c(Cl)ccc4[nH]3)n3ncc(Br)c3n2)CC1` [Example 373, 8-bromo-N-[(5-chloro-4-fluoro-1H-benzimidazol-2-yl)methyl]-2-(4-methylpiperazin-1-yl)pyrazolo[1,5-a][1,3,5]triazin-4-amine]: the IC50 in test [1] (setting [3]) worked out at 14400 nM. Also, the DC50 in test [2] is 0.0805 nM. Taken in the same sequence, the figures for `Brc1cnn2c(NCc3nc4ccccc4[nH]3)nc(N3CCN4CCC3CC4)nc12` [Example 349, N-[(1H-benzimidazol-2-yl)methyl]-8-bromo-2-(1,4-diazabicyclo[3.2.2]nonan-4-yl)pyrazolo[1,5-a][1,3,5]triazin-4-amine] were > 20000 nM and 0.784 nM.

As to `CN1CCN(c2nc(NCc3nc4c(F)c(Cl)ccc4[nH]3)n3ncc(C4CC4)c3n2)CC1` [Example 371, N-[(5-chloro-4-fluoro-1H-benzimidazol-2-yl)methyl]-8-cyclopropyl-2-(4-methylpiperazin-1-yl)pyrazolo[1,5-a][1,3,5]triazin-4-amine], the IC50 in test [1] (setting [3]) was > 20000 nM. Also, the DC50 in test [2] came out at 0.652 nM. For `CN1CCN(c2nc(NCc3nc4cc(C(F)(F)F)ccc4[nH]3)n3ncc(Br)c3n2)CC1` [Example 344, 8-bromo-2-(4-methylpiperazin-1-yl)-N-{[5-(trifluoromethyl)-1H-benzimidazol-2-yl]methyl}pyrazolo[1,5-a][1,3,5]triazin-4-amine], in that order: > 20000 nM and 0.392 nM. As to `Fc1cc2nc(CNc3nc(N4CCOCC4)nc4c(Br)cnn34)[nH]c2cc1Cl` [Example 336, 8-bromo-N-[(6-chloro-5-fluoro-1H-benzimidazol-2-yl)methyl]-2-(morpholin-4-yl)pyrazolo[1,5-a][1,3,5]triazin-4-amine], the DC50 in test [2] worked out at 0.52 nM.

Regarding `CN1CCN(c2nc(NCc3nc4cc(F)c(F)cc4[nH]3)n3ncc(Br)c3n2)CC1` [Example 346, 8-bromo-N-[(5,6-difluoro-1H-benzimidazol-2-yl)methyl]-2-(4-methylpiperazin-1-yl)pyrazolo[1,5-a][1,3,5]triazin-4-amine], the IC50 in test [1] (setting [3]) was > 20000 nM. Besides, in test [2], the DC50 came out at 0.149 nM.

As for `Fc1cc2nc(CNc3nc(N4CCOCC4)nc4c(C(F)(F)F)cnn34)[nH]c2cc1F` [Example 333, N-[(5,6-difluoro-1H-benzimidazol-2-yl)methyl]-2-(morpholin-4-yl)-8-(trifluoromethyl)pyrazolo[1,5-a][1,3,5]triazin-4-amine], the IC50 in test [1] (setting [3]) was > 20000 nM. Further, the DC50 in test [2] turned out to be 0.113 nM.

Regarding `Cc1cc2nc(CNc3nc(N(C)CC(C)(C)O)nc4c(Br)cnn34)[nH]c2cc1C` [Example 343, 1-[(8-bromo-4-{[(5,6-dimethyl-1H-benzimidazol-2-yl)methyl]amino}pyrazolo[1,5-a][1,3,5]triazin-2-yl)(methyl)amino]-2-methylpropan-2-ol], in test [1] (setting [3]), the IC50 amounted to 4270 nM. Further, the DC50 in test [2] is 0.0978 nM. For `FC(F)(F)c1ccc2[nH]c(CNc3nc(N4CC5CCC(C4)N5)nc4c(Br)cnn34)nc2c1` [Example 354, 8-bromo-2-(3,8-diazabicyclo[3.2.1]octan-3-yl)-N-{[5-(trifluoromethyl)-1H-benzimidazol-2-yl]methyl}pyrazolo[1,5-a][1,3,5]triazin-4-amine], in that order: > 20000 nM and 1.65 nM.

`Fc1c(Cl)ccc2[nH]c(CNc3nc(N4CC5CCC(C4)N5)nc4c(C5CC5)cnn34)nc12` [Example 379, N-[(5-chloro-4-fluoro-1H-benzimidazol-2-yl)methyl]-8-cyclopropyl-2-(3,8-diazabicyclo[3.2.1]octan-3-yl)pyrazolo[1,5-a][1,3,5]triazin-4-amine]: the IC50 in test [1] (setting [3]) was 11300 nM. The DC50 in test [2] worked out at 0.404 nM. For `CN(CC(C)(C)O)c1nc(NCc2nc3cc(F)c(Cl)cc3[nH]2)n2ncc(Br)c2n1` [Example 338, 1-[(8-bromo-4-{[(6-chloro-5-fluoro-1H-benzimidazol-2-yl)methyl]amino}pyrazolo[1,5-a][1,3,5]triazin-2-yl)(methyl)amino]-2-methylpropan-2-ol], in that order: 8300 nM and 0.17 nM. For `Cc1cc2nc(CNc3nc(N4CC5CCC(C4)N5)nc4c(Br)cnn34)[nH]c2cc1C` [Example 353, 8-bromo-2-(3,8-diazabicyclo[3.2.1]octan-3-yl)-N-[(5,6-dimethyl-1H-benzimidazol-2-yl)methyl]pyrazolo[1,5-a][1,3,5]triazin-4-amine], the IC50 in test [1] (setting [3]) was 12700 nM. In addition, in test [2], the DC50 amounted to 0.644 nM.

Consider `Cc1cc2nc(CNc3nc(N(C)CC(C)(C)O)nc4c(C5CC5)cnn34)[nH]c2cc1C` [Example 321, 1-[(8-cyclopropyl-4-{[(5,6-dimethyl-1H-benzimidazol-2-yl)methyl]amino}pyrazolo[1,5-a][1,3,5]triazin-2-yl)(methyl)amino]-2-methylpropan-2-ol], for which, in test [1] (setting [3]), the IC50 was 7300 nM. The DC50 in test [2] was 1.36 nM. For `Fc1c(Cl)ccc2[nH]c(CNc3nc(N4CC5CCC(C4)N5)nc4c(Br)cnn34)nc12` [Example 380, 8-bromo-N-[(5-chloro-4-fluoro-1H-benzimidazol-2-yl)methyl]-2-(3,8-diazabicyclo[3.2.1]octan-3-yl)pyrazolo[1,5-a][1,3,5]triazin-4-amine], in that order: 5930 nM and 0.22 nM. For `Fc1cc2nc(CNc3nc(N4CC5CCC(C4)N5)nc4c(Br)cnn34)[nH]c2cc1F` [Example 355, 8-bromo-2-(3,8-diazabicyclo[3.2.1]octan-3-yl)-N-[(5,6-difluoro-1H-benzimidazol-2-yl)methyl]pyrazolo[1,5-a][1,3,5]triazin-4-amine], in that order: > 20000 nM and 0.481 nM. In the case of `Fc1ccc2[nH]c(CNc3nc(N4CC5CCC(C4)N5)nc4c(Cl)cnn34)nc2c1F.O=CO` [Example 360, formic acid 8-chloro-2-(3,8-diazabicyclo[3.2.1]octan-3-yl)-N-[(4,5-difluoro-1H-benzimidazol-2-yl)methyl]pyrazolo[1,5-a][1,3,5]triazin-4-amine], the DC50 in test [2] amounted to 0.709 nM.
